# Assay results from article PMC9179341, “Design of New Potent and Selective Thiophene-Based KV1.3 Inhibitors and Their Potential for Anticancer Activity” (Cancers, 2022).
# Entries after “also recorded” stand apart in the source; their conditions may differ.
# System: not listed separately
# Assay: Turbidimetric solubility assay
# Type: physicochemical
# Conditions: 10 µM in PBS with 1 % final DMSO
# Method: For the phosphate-buffered saline, we dissolved 2.38 g of disodium hydrogen phosphate dodecahydrate, 0.19 g of potassium dihydrogen phosphate, and 8.0 g of sodium chloride in water and diluted it to 1000 mL with the same solvent. Then we adjusted the pH to 7.4. The stock DMSO solutions of the compounds were prepared at concentrations of 50 mM, 20 mM, 10 mM, and 1 mM. The final solutions (500 µM, 200 µM, 100 µM, and 10 µM) were prepared by adding 2 µL of the stock DMSO solution to 198 µL of phosphate-buffered saline. The absorbance (area scan) was measured at 620 nm for sample volume of 200 µL and the appearance of the solutions was checked by visual inspection.
row,Compound,absorbance at 620 nm
1,COc1ccc(F)cc1C(=O)NCC1(c2ccccc2)CCOCC1 [Compound 37],0
2,COc1ccccc1C(=O)NCC1(c2cccs2)CCOCC1 [Compound 43],"0,01"
3,COc1ccccc1C(=O)NCC1(c2ccsc2)CCOCC1 [Compound 44],0

# Same assay, conditions: 100 µM in PBS with 1 % final DMSO
row,Compound,absorbance at 620 nm
1,COc1ccc(F)cc1C(=O)NCC1(c2ccccc2)CCOCC1 [Compound 37],"0,003"
2,COc1ccccc1C(=O)NCC1(c2cccs2)CCOCC1 [Compound 43],"0,002"
3,COc1ccccc1C(=O)NCC1(c2ccsc2)CCOCC1 [Compound 44],"0,003"

# Same assay, conditions: 200 µM in PBS with 1 % final DMSO
row,Compound,absorbance at 620 nm
1,COc1ccc(F)cc1C(=O)NCC1(c2ccccc2)CCOCC1 [Compound 37],"0,005"
2,COc1ccccc1C(=O)NCC1(c2cccs2)CCOCC1 [Compound 43],"0,003"
3,COc1ccccc1C(=O)NCC1(c2ccsc2)CCOCC1 [Compound 44],"0,003"

# Same assay, conditions: 500 µM in PBS with 1 % final DMSO
row,Compound,absorbance at 620 nm
1,COc1ccc(F)cc1C(=O)NCC1(c2ccccc2)CCOCC1 [Compound 37],"0,077"
2,COc1ccccc1C(=O)NCC1(c2cccs2)CCOCC1 [Compound 43],"0,011"
3,COc1ccccc1C(=O)NCC1(c2ccsc2)CCOCC1 [Compound 44],"0,014"

# Same assay, conditions: pH 7.4, aqueous buffer, kinetic from dmso stock; phosphate-buffered saline, final 1% DMSO; read-out: Concentration at which compound was soluble (turbidimetric solubility test)
row,Compound,solubility
1,COc1ccc(F)cc1C(=O)NCC1(c2ccccc2)CCOCC1 [Compound 37],≥ 200 µM
2,COc1ccccc1C(=O)NCC1(c2cccs2)CCOCC1 [Compound 43],≥ 500 µM
3,COc1ccccc1C(=O)NCC1(c2ccsc2)CCOCC1 [Compound 44],≥ 500 µM

# System: Colo-357 cells
# Assay: Cell proliferation (culture confluency, IncuCyte) in 2D culture, Colo-357
# Type: cell-based
# Conditions: 100 µM, confluence by live cell imaging
# Method: Cell lines Panc-1 (ACC 783) and Colo-357 (CVCL_0221) were obtained through the validated collection of the pHioniC consortium (MSC-ITN 813834). Both cell lines were grown in RPMI1640, supplemented with 1 mM sodium pyruvate and 1% Glutamax (all Gibco Thermo-Fisher, Waltham, MA USA) 10%FBS (BioChrom, Berlin, Germany), at 5% CO2 and 37 °C in a humidified atmosphere.
# For cell proliferation assays, cells were seeded at a density of 10,000 cells/well in 96-well flat bottom culture plates (Corning, Kaiseslautern, Germany) and proliferation was measured through culture confluency using an IncuCyte device (Sartorius, Göttingen, Germany). Every hour, two phase contrast images per well were acquired, and a confluency mask was generated by training the analysis algorithm using representative images. Every image was then analyzed using the obtained parameters to determine culture confluency. Treatments were then added when cells reached a confluency of ~30% (Panc-1) or ~55% (Colo-357), and proliferation was determined for the following 60 h. Proliferation is reported as confluency increase with respect to the start of the treatment.
row,Compound,Growth of Colo-357 cells
1,COc1ccccc1C(=O)NCC1(c2cccs2)CCOC1 (centres unmarked) [Compound 14],not significantly affected; also recorded: unaffected
2,COc1ccc(F)cc1C(=O)NCC1(c2ccccc2)CCOCC1 [Compound 37],not significantly affected; also recorded: unaffected
3,COc1ccccc1C(=O)NCC1(c2cccs2)CCOCC1 [Compound 43],not significantly affected; also recorded: unaffected
4,COc1ccccc1C(=O)NCC1(c2ccsc2)CCOCC1 [Compound 44],not significantly affected; also recorded: unaffected

# Target: KV1.6 (Homo sapiens, UniProt P17658)
# Sequence (P17658 whole entry): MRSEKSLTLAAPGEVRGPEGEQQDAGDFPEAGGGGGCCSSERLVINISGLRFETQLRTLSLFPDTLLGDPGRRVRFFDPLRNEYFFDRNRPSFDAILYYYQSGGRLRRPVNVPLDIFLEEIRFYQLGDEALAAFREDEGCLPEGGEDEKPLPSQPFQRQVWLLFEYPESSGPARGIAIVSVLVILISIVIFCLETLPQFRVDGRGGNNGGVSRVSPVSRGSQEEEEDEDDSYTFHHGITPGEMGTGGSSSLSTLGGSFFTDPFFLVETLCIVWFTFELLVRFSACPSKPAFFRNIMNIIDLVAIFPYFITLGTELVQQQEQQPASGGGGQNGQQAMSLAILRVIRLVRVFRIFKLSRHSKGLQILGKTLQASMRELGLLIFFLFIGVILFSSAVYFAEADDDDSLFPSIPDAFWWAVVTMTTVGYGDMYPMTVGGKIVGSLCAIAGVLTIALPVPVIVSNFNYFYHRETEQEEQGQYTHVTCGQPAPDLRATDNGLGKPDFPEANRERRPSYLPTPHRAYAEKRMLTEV
# Assay: Selectivity, HiClamp Xenopus laevis heterologous expression system, KV1.6
# Type: cell-based
# Conditions: HiClamp, oocytes; NA = no significant inhibition, no IC50 determined
# Method: Ion channels (Kv1.x, Kv2.1, Kv4.2, Kv10.1) were expressed in Xenopus laevis oocytes by linearization of the plasmids and subsequent in vitro transcription using a commercial T7 or SP6 mMESSAGE mMACHINE transcription kit (Ambion, Carlsbad, California, USA). Defolliculated Xenopus oocytes were then injected with 20–50 nL of the cRNA at a concentration of 1 ng/nL using a micro-injector (Drummond Scientific1, Broomall, PA, USA). The oocytes were incubated in a solution containing (in mM): NaCl, 96; KCl, 2; CaCl2, 1.8; MgCl2, 2 and HEPES, 5 (pH 7.5), supplemented with 50 mg/L gentamycin sulfate and 90 mg/L theophylline. After ex vivo translation, the ion channels were correctly inserted in the cell membrane of the oocytes.
# Two-electrode voltage-clamp recordings were performed at room temperature (18–22 °C) using a Geneclamp 500 amplifier (Molecular Devices, San Jose, CA, USA) and pClamp data acquisition (Axon Instruments, Union City, CA, USA) and using an integrated digital TEVC amplifier controlled by HiClamp, an automated Voltage-Clamp Screening System (Multi Channel Systems MCS GmbH, Reutlingen, Germany). Whole-cell currents from oocytes were recorded 1–4 days after injection. The bath solution composition was ND96 (in mM): NaCl, 96; KCl, 2; CaCl2, 1.8; MgCl2, 2 and HEPES, 5 (pH 7.5). Voltage and current electrodes were filled with a 3 M solution of KCl in H2O. Resistances of both electrodes were kept between 0.5 and 1.5 MΩ. The elicited Kv1.x, Kv2.1, Kv4.2 and Kv10.1 currents were filtered at 0.5 kHz and sampled at 2 kHz using a four-pole low-pass Bessel filter. Leak subtraction was performed using a P/4 protocol.
# For the electrophysiological analysis of the compounds, a number of protocols were applied from a holding potential of −90 mV. Currents for Kv1.x, Kv2.1, Kv4.2 and Kv10.1 were evoked by 1 s depolarizing pulses either to 0 mV or to a range of voltage steps between −80 mV and +40 mV. For the analysis of the data, only the inhibition at the 0 mV step was used. The concentration dependency of all compounds was assessed by measuring the current inhibition in the presence of increasing compound concentrations. […] From this stock solution, adequate dilutions with a maximum of 0.5% DMSO were made for testing.
# All electrophysiological data (Figure S1) are presented as means ± S.E.M of n ≥ three independent experiments unless otherwise indicated. All data were analyzed using pClamp Clampfit 10.4 (Molecular Devices, Downingtown, PA, USA), OriginPro 9 (Originlab, Northampton, MA, USA), GraphPad Prism 8 software (GraphPad Software, Inc., San Diego, CA, USA) and DataMining (Multi Channel Systems MCS GmbH, Reutlingen, Germany). The Dunnett test and one-way ANOVA were performed to calculate the significance of the induced inhibition compared to the control.
row,Compound,IC50
1,COc1ccccc1C(=O)NCC1(c2cccs2)CCOC1 (centres unmarked) [Compound 14],430 ± 20 nM
2,COc1ccc(F)cc1C(=O)NCC1(c2ccccc2)CCOCC1 [Compound 37],4330 ± 1210 nM
3,COc1ccccc1C(=O)NCC1(c2cccs2)CCOCC1 [Compound 43],830 ± 10 nM

# Same assay, conditions: at a concentration of the compound's IC50 value for KV1.3
row,Compound,Effect on KV1.6 channel
1,COc1ccccc1C(=O)NCC1(c2cccs2)CCOC1 (centres unmarked) [Compound 14],significant effects
2,COc1ccc(F)cc1C(=O)NCC1(c2ccccc2)CCOCC1 [Compound 37],significantly inhibited
3,COc1ccccc1C(=O)NCC1(c2cccs2)CCOCC1 [Compound 43],significant effects
4,COc1ccccc1C(=O)NCC1(c2ccsc2)CCOCC1 [Compound 44],no significant effects
